Assays:
[1] = tested on: Proteasome; assay: Inhibition of post glutamyl l-peptide (PGPH) proteolytic activity of purified human proteasome
[2] = tested on: Proteasome; assay: Inhibition of trypsin-like proteolytic activity of purified human proteasome; format: subcellular
[3] = tested on: MDA-MB-435; assay: Inhibition of MDA-MB 435 cell proliferation; format: functional, cell-based; conditions: Homo sapiens
[4] = tested on: Proteasome; assay: Inhibition of chymotrypsin-like proteolytic activity of purified human proteasome in cultured MDA-MB 435 Cells; format: subcellular
[5] = tested on: Proteasome; assay: Inhibition of chymotrypsin-like proteolytic activity of purified human proteasome; format: subcellular

Compound	IC50 [1] [µM]	IC50 [2] [µM]	IC50 [3] [nM]	IC50 [4] [nM]	IC50 [5] [nM]
COc1ccc(CNC(=O)[C@@H](NC(=O)[C@H](Cc2cc(OC)c(OC)c(OC)c2)NC(=O)Cc2cccc(Oc3ccccc3)c2)C(C)C)c(O)c1	> 20	> 20	60	20	10
COc1ccc(CNC(=O)[C@@H](NC(=O)[C@H](NCc2cc(OC)c(OC)c(OC)c2)[C@H](O)[C@H](Cc2ccccc2)NC(=O)[C@@H](NC(=O)Cc2cccc3ccccc23)C(C)(C)C)C(C)C)c(O)c1	> 20	> 20	1500		7
COc1ccc(CN[C@@H](C(=O)N[C@H](C(=O)NCc2ccc(OC)cc2O)C(C)C)[C@H](O)[C@H](Cc2ccccc2)NC(=O)[C@@H](NC(=O)OCc2ccccc2)C(C)(C)C)cc1	> 20	> 20			900

Next, values leading:

IC50 [1] [µM]	IC50 [2] [µM]	IC50 [3] [nM]	IC50 [4] [nM]	IC50 [5] [nM]	Compound
				1000	COc1ccc(CNC(=O)[C@@H](NC(=O)[C@H](Cc2ccc(OC)c(OC)c2)NC(=O)Cc2ccccc2)C(C)C)c(O)c1
> 20	> 20	900		60	COc1ccc(CNC(=O)[C@@H](NC(=O)[C@H](Cc2ccc(OC)c(OC)c2)NC(=O)Cc2cccc(Oc3ccccc3)c2)C(C)C)c(O)c1

Reference: ChEMBL document CHEMBL1138756, “Entry into a new class of potent proteasome inhibitors having high antiproliferative activity by structure-based design” (J Med Chem, 2004)
